Laboratory results from US10112932B2, “Benzoxazepin oxazolidinone compounds and methods of use” (Genentech, Inc., priority 2015, dated 2018).

How the values were obtained:
[1] = system: HCC1954 (PI3Kα mutant H1047R), p-PRAS40; assay: p-PRAS40 MSD assay in HCC1954 cells (Example 907)
Experimental: (§1) The following day, cells are treated with compounds and incubated for 24 hours. […] The HCC1954 cell line expresses mutant PI3Kα (E545K) vs WT in HDQP1.
(§2) The MSD platform provides a method of measuring the phosphorylated levels of pPRAS40 in a single sample. […] Following cell lysis, PRAS40 in samples is allowed to bind to the capture antibodies.
(§3) Procedure: • Compounds prepared at concentration of 2 mM in DMSO.
(§4) Day 1: Cell Plating • 1. Seed 12.500 cells in 45 ul medium for each cell line. Allow cells to settle/attach to plate for 15-20 min at room temperature. • 2. Incubate cells overnight in a 37° C. humidity and CO2 controlled incubator.
(§5) Day 2: Compound Plate Preparation and Compound Treatment • 1. For the 10× intermediate dilution plate: add 95 ul serum-free media into a standard profile greiner 384 well polypropylene plate. • 2. Use biomek Fx protocol for intermediate compound dilution in media and addition to cells: “SLS Intermed Dil Add 5 ul to Cells Jul. […] The method then transfers 5 ul from the intermediate dilution plate to the appropriate cell plate. • 3. Incubate the treated cells at 37 degrees for 24 hours in a 5% CO2 humidified incubator.
(§6) Block the MSD assay plate with 50 ul 3% Blocker A/1×MSD Wash Buffer 1-2 hr at room temp. […] Blocking buffer A contains 1×MSD wash buffer. 20 mL 1× Tris Wash buffer and 600 mg Blocker A.
(§7) Aspirate Media and Lyse the Cells • 1. Lyse the cells in 50 μl lysis buffer. Lyse at room temperature for 10-20 minutes on plate shaker. • 2. While cells are lysing, wash blocked plates 1×MSD wash buffer. • 3. Transfer 42 ul lysates (21+21 μL) to a blocked MSD pPRAS40 assay plate. • 4. Seal MSD plates and incubate at 4° C. with shaking overnight.
(§8) Day 4: MSD Assay/Detection • 8. Make a solution of 1% Blocker A in 1×MSD wash buffer. (20 mL 1× Tris Wash buffer and 200 mg Blocker A (1% w/v). This solution can be stored at 4° C. for up to one month. • 9. Wash the MSD plates with 1×MSD wash buffer. • 10. Add 10 μl of the diluted SULFO-TAG detection antibody to the plates. Incubate for 1 hr with shaking at room temp.
(§9) Wash the plates 4× with 1×MSD wash buffer. • 12. Add 35 μl 1× Read buffer with reverse pipetting to avoid bubbles. • 13. Read the plate immediately on the MSD SECTOR instrument.

[2] = system: SW48 (H1047R) PI3Kα mutant cells, P-PRAS40; assay: Inhibition of P-PRAS40 in SW48 isogenic cells, kinase domain mutant H1047R (Example 902)
PI3Kβ = PI3Kβ (Homo sapiens (Human), UniProt P42338); assay: Biochemical inhibition of PI3K beta (ADP-Glo lipid kinase assay, Example 901); settings: geometric mean of minimum three experiments
Chain of PI3Kβ (P42338 whole entry, canonical isoform): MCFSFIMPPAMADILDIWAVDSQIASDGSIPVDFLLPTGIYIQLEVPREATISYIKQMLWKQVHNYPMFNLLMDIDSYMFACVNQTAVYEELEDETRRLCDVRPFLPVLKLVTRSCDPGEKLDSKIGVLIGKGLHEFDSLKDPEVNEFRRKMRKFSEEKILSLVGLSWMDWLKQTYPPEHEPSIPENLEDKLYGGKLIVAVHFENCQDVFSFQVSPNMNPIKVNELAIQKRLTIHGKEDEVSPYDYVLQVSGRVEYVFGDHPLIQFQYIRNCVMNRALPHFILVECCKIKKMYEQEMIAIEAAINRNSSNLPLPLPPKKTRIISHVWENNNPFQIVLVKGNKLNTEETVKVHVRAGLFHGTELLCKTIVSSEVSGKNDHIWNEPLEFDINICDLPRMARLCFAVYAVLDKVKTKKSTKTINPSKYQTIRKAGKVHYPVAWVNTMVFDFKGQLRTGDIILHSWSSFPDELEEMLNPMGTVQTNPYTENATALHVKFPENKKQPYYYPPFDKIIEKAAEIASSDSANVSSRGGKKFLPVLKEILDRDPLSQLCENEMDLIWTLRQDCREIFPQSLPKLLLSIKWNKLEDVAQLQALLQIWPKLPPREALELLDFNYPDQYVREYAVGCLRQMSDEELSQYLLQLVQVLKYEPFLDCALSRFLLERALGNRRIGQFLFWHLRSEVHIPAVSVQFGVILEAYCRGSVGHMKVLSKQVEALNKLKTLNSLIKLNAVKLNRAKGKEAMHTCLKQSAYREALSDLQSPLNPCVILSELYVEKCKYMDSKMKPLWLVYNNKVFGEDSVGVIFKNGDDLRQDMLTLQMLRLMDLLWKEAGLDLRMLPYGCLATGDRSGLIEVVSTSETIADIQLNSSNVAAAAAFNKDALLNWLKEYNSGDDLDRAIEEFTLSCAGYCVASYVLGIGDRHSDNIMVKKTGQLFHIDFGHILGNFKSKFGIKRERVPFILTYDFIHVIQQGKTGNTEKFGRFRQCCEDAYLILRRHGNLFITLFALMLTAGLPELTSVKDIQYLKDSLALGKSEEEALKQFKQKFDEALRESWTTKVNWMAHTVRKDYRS
Chain of PI3Kβ (P27986 whole entry partner, canonical isoform): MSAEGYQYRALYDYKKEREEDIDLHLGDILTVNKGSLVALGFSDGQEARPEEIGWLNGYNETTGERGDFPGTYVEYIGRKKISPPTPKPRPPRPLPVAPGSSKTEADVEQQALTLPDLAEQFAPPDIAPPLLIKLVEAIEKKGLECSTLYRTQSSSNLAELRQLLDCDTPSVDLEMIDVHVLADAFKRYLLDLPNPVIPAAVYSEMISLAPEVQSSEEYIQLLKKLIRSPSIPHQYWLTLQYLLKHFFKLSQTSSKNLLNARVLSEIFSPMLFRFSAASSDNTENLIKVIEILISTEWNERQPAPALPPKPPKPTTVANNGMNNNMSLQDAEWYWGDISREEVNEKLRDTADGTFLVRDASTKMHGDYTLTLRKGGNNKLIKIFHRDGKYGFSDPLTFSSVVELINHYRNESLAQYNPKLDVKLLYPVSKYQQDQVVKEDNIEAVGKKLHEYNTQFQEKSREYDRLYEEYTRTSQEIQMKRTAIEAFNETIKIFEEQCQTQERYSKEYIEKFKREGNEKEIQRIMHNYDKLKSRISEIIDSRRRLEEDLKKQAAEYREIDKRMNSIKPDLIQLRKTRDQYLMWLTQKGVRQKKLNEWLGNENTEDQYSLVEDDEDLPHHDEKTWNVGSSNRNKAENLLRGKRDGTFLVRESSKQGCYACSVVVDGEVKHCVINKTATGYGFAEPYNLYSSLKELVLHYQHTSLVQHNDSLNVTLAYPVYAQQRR
Experimental: Reactions are carried out using the following conditions for each PI3K isoform as in Table 5.
All reactions are carried out at room temperature. […] The reaction is started by the addition of 2 μl ATP/MgCl2. The kinase reaction buffer contains 50 mM HEPES, 50 mM NaCl 3 mM MgCl2, 0.01% BSA, 1% DMSO, and enzyme and substrate concentrations as indicated in the above table. The reaction is stopped by the addition of 10 μL ADP-Glo reagent. Plates are read in a Perkin Elmer Envision system using luminescence mode. 10 point dose response curves are generated for each test compound. Ki values for each compound are determined using the Morrison Equation.

[3] = Unbound fraction in dog plasma (Fu); format: in vitro ADME; settings: read-out: Fu dog (unbound fraction in species plasma)
[4] = system: HDQ-P1 (PI3Kα wild-type), p-PRAS40; assay: p-PRAS40 MSD assay in HDQ-P1 cells (Example 907); settings: Homo sapiens, HDQ-P1, 24 h, read-out: P-PRAS40 HDQ-P1 MSD EC50
Experimental: as §1, §2, §3, §4, §5, §6, §7, §8, §9

Question: With `C[C@H](Nc1ccc2c(c1)OCCn1cc(N3C(=O)OC[C@H]3C(F)F)nc1-2)C(N)=O` [Compound 101, (S)-2-((2-((S)-4-(Difluoromethyl)-2-oxooxazolidin-3-yl)-5,6-dihydrobenzo[f]imidazo[1,2-d][1,4]oxazepin-9-yl)amino)propanamide] as the compound, how does the “Fold Selectivity for HCC1954 vs. HDQ-P1” value ([1]; EC50 ratio) read?
Answer: Its value is 4.4.

Question: What about the EC50 ([1]; read-out: P-PRAS40 HCC1954 MSD EC50, 24 hours treatment) of the same compound?
Answer: Its EC50 is 0.019 µM.

Question: And the “Fold Selectivity for SW48 (H1047R) vs. SW48 (parental)” value ([2]; EC50 ratio)?
Answer: Its value is 2.1 (p = 0.002).

Question: What about the EC50 ([2]; Homo sapiens, SW48, 24 h, read-out: P-PRAS40 SW48 (H1047R) EC50) of the same compound?
Answer: Its EC50 is 0.003 µM.

Question: And the Ki (PI3Kβ)?
Answer: Its Ki is 0.0997 µM.

Question: What about the fraction unbound [3] of the same compound?
Answer: Its fraction unbound is 0.692.

Question: What about the EC50 [4] of the same compound?
Answer: Its EC50 is 0.084 µM.
